Experimental data: publication PMC5218480 (PLoS ONE, 2017)

System: MV-4-11 cells
Test: Gene expression microarray analysis (Affymetrix PrimeView) and GSEA
Type: cell-based, human
Parameters: RFU PODN (11730768_x_at) / Fold change /veh PODN (11730768_x_at) / RFU LINC00158 (11744669_a_at) / Fold change /veh LINC00158 (11744669_a_at) / RFU DUSP10 (11751237_a_at) / Fold change /veh DUSP10 (11751237_a_at) / RFU ID3 (11757404_x_at) / Fold change /veh ID3 (11757404_x_at) / RFU PLEKHG5 (11737974_s_at) / Fold change /veh PLEKHG5 (11737974_s_at) / RFU LRRC4B (11730491_at) / Fold change /veh LRRC4B (11730491_at) / RFU GIMAP4 (11747438_a_at) / Fold change /veh GIMAP4 (11747438_a_at) / RFU KRT8 (11758183_x_at) / Fold change /veh KRT8 (11758183_x_at) / RFU CNN1 (11734310_a_at) / Fold change /veh CNN1 (11734310_a_at) / RFU VPS37D (11726825_at) / Fold change /veh VPS37D (11726825_at) / RFU C10orf10 (11716522_x_at) / Fold change /veh C10orf10 (11716522_x_at) / RFU KIR2DL2 /// KIR2DL4 /// KIR2DL5A /// KIR2DL5B /// KIR2DS1 /// KIR2DS2 /// KIR2DS3 /// KIR2DS4 /// KIR3DL3 /// KIR3DL3 /// KIR3DS1 (11738374_at) / Fold change /veh KIR2DL2 /// KIR2DL4 /// KIR2DL5A /// KIR2DL5B /// KIR2DS1 /// KIR2DS2 /// KIR2DS3 /// KIR2DS4 /// KIR3DL3 /// KIR3DL3 /// KIR3DS1 (11738374_at) / RFU C1QL1 (11718748_at) / Fold change /veh C1QL1 (11718748_at) / RFU TMPRSS4 (11747572_a_at) / Fold change /veh TMPRSS4 (11747572_a_at) / RFU HAMP (11756126_x_at) / Fold change /veh HAMP (11756126_x_at) / RFU RNFT2 (11725882_a_at) / Fold change /veh RNFT2 (11725882_a_at) / RFU NR4A2 (11747474_a_at) / Fold change /veh NR4A2 (11747474_a_at) / RFU ABCC12 (11746883_a_at) / Fold change /veh ABCC12 (11746883_a_at) / RFU TMEM136 (11760407_x_at) / Fold change /veh TMEM136 (11760407_x_at) / RFU CLDN22 /// WWC2 (11732394_at) / Fold change /veh CLDN22 /// WWC2 (11732394_at) / RFU HLA-DPB1 (11760878_x_at) / Fold change /veh HLA-DPB1 (11760878_x_at) / RFU SPINT1 (11716480_a_at) / Fold change /veh SPINT1 (11716480_a_at) / RFU GAP43 (11754022_s_at) / Fold change /veh GAP43 (11754022_s_at) / RFU A4GNT (11735810_at) / Fold change /veh A4GNT (11735810_at) / RFU PRB3 (11715151_x_at) / Fold change /veh PRB3 (11715151_x_at) / RFU TUBB4B (11761932_at) / Fold change /veh TUBB4B (11761932_at) / RFU CAPN14 (11732068_a_at) / Fold change /veh CAPN14 (11732068_a_at) / RFU TMCC2 (11721928_a_at) / Fold change /veh TMCC2 (11721928_a_at) / RFU IRGQ (11745062_a_at) / Fold change /veh IRGQ (11745062_a_at) / RFU FAM174B (11720279_a_at) / Fold change /veh FAM174B (11720279_a_at) / RFU TMPRSS4 (11748680_a_at) / Fold change /veh TMPRSS4 (11748680_a_at) / RFU FAM212B (11763350_a_at) / Fold change /veh FAM212B (11763350_a_at) / RFU PLEKHG5 (11743358_a_at) / Fold change /veh PLEKHG5 (11743358_a_at) / RFU ZSCAN30 (11745921_a_at) / Fold change /veh ZSCAN30 (11745921_a_at) / RFU CMKLR1 (11741424_a_at) / Fold change /veh CMKLR1 (11741424_a_at) / RFU LOC101060620 /// MAPK8IP1 (11723275_at) / Fold change /veh LOC101060620 /// MAPK8IP1 (11723275_at) / RFU SPTSSB (11747773_x_at) / Fold change /veh SPTSSB (11747773_x_at) / RFU PRSS12 (11739890_at) / Fold change /veh PRSS12 (11739890_at) / RFU BIN1 (11741810_x_at) / Fold change /veh BIN1 (11741810_x_at) / RFU WNT11 (11732464_a_at) / Fold change /veh WNT11 (11732464_a_at) / RFU C10orf10 (11716521_a_at) / Fold change /veh C10orf10 (11716521_a_at) / RFU C5orf56 (11738089_at) / Fold change /veh C5orf56 (11738089_at) / RFU CYB561 (11721691_x_at) / Fold change /veh CYB561 (11721691_x_at) / RFU ANKRD19P (11752326_a_at) / Fold change /veh ANKRD19P (11752326_a_at) / RFU OR2T12 /// OR2T33 /// OR2T8 (11738714_s_at) / Fold change /veh OR2T12 /// OR2T33 /// OR2T8 (11738714_s_at) / RFU VCAN (11748164_a_at) / Fold change /veh VCAN (11748164_a_at) / RFU JSRP1 (11732532_at) / Fold change /veh JSRP1 (11732532_at) / RFU KRTAP10-11 (11738290_x_at) / Fold change /veh KRTAP10-11 (11738290_x_at) / RFU MYO3A (11730013_a_at) / Fold change /veh MYO3A (11730013_a_at) / RFU EBF3 (11725865_a_at) / Fold change /veh EBF3 (11725865_a_at) / RFU CAMK2N1 (11719241_x_at) / Fold change /veh CAMK2N1 (11719241_x_at) / RFU C5orf56 (11738088_a_at) / Fold change /veh C5orf56 (11738088_a_at) / RFU OLFML3 (11715873_a_at) / Fold change /veh OLFML3 (11715873_a_at) / RFU LOC100653217 /// NTM (11731650_a_at) / Fold change /veh LOC100653217 /// NTM (11731650_a_at) / RFU MAPK11 (11762145_a_at) / Fold change /veh MAPK11 (11762145_a_at) / RFU FIZ1 (11724087_x_at) / Fold change /veh FIZ1 (11724087_x_at) / RFU OASL (11726364_x_at) / Fold change /veh OASL (11726364_x_at) / RFU SOX15 (11748057_x_at) / Fold change /veh SOX15 (11748057_x_at) / RFU CD79A (11719716_a_at) / Fold change /veh CD79A (11719716_a_at) / RFU HIST1H1D (11736915_at) / Fold change /veh HIST1H1D (11736915_at) / RFU CASKIN2 (11723855_a_at) / Fold change /veh CASKIN2 (11723855_a_at) / RFU LOC730098 (11760151_x_at) / Fold change /veh LOC730098 (11760151_x_at) / RFU OR4N2 (11742367_at) / Fold change /veh OR4N2 (11742367_at) / RFU PRRT2 (11749266_a_at) / Fold change /veh PRRT2 (11749266_a_at) / RFU SNX32 (11753110_a_at) / Fold change /veh SNX32 (11753110_a_at) / RFU CDHR5 (11726645_a_at) / Fold change /veh CDHR5 (11726645_a_at) / RFU RCAN1 (11760418_a_at) / Fold change /veh RCAN1 (11760418_a_at) / RFU FAM167A (11723789_a_at) / Fold change /veh FAM167A (11723789_a_at) / RFU FAM26E (11764081_at) / Fold change /veh FAM26E (11764081_at) / RFU ISYNA1 (11749810_s_at) / Fold change /veh ISYNA1 (11749810_s_at) / RFU ACY1 (11761880_at) / Fold change /veh ACY1 (11761880_at) / RFU 11764098_at / Fold change /veh 11764098_at / RFU SAMD14 (11745864_x_at) / Fold change /veh SAMD14 (11745864_x_at) / RFU NPB (11741838_a_at) / Fold change /veh NPB (11741838_a_at) / RFU TMPRSS6 (11731388_a_at) / Fold change /veh TMPRSS6 (11731388_a_at) / RFU KRTAP10-2 (11738614_at) / Fold change /veh KRTAP10-2 (11738614_at) / RFU ARHGAP8 /// PRR5-ARHGAP8 (11727945_x_at) / Fold change /veh ARHGAP8 /// PRR5-ARHGAP8 (11727945_x_at) / RFU KRTAP5-7 /// NADSYN1 (11734609_at) / Fold change /veh KRTAP5-7 /// NADSYN1 (11734609_at) / RFU RASL12 (11751679_a_at) / Fold change /veh RASL12 (11751679_a_at) / RFU CDKN2B (11736163_a_at) / Fold change /veh CDKN2B (11736163_a_at) / RFU PRF1 (11729649_at) / Fold change /veh PRF1 (11729649_at) / RFU, ZNF638 /// ZNF638-IT1 / Fold change vs veh, ZNF638 /// ZNF638-IT1 / RFU, PANK3 / Fold change vs veh, PANK3 / RFU, SH3YL1 / Fold change vs veh, SH3YL1 / RFU, ZEB2 / Fold change vs veh, ZEB2 / RFU, NRIP1 / Fold change vs veh, NRIP1 / RFU, PTTG1IP / Fold change vs veh, PTTG1IP / RFU, CAPN2 / Fold change vs veh, CAPN2 / RFU, MED14 / Fold change vs veh, MED14 / RFU, SNORA58 / Fold change vs veh, SNORA58 / RFU, C1orf63 / Fold change vs veh, C1orf63 / RFU, LRRFIP1 / Fold change vs veh, LRRFIP1 / RFU, NDUFAF7 / Fold change vs veh, NDUFAF7 / RFU, SLC12A2 / Fold change vs veh, SLC12A2 / RFU, IBTK / Fold change vs veh, IBTK / RFU, ESF1 / Fold change vs veh, ESF1 / Fold change vs veh, TMEM50B / RFU, TAOK1 / Fold change vs veh, TAOK1 / RFU, ACBD3 / Fold change vs veh, ACBD3 / RFU, TMA16 / Fold change vs veh, TMA16 / RFU, RWDD3 / Fold change vs veh, RWDD3 / RFU, BCAT1 / Fold change vs veh, BCAT1 / RFU, EDEM3 / Fold change vs veh, EDEM3 / RFU, TMEM33 / Fold change vs veh, TMEM33 / RFU, WDR75 / Fold change vs veh, WDR75 / RFU, AHCTF1 / Fold change vs veh, AHCTF1 / RFU, TFRC / Fold change vs veh, TFRC / RFU, ZDHHC17 / Fold change vs veh, ZDHHC17 / RFU, NOM1 / Fold change vs veh, NOM1 / RFU, ARL8B / Fold change vs veh, ARL8B / RFU, ZBTB11 / Fold change vs veh, ZBTB11 / RFU, TAMM41 / Fold change vs veh, TAMM41 / RFU, KIAA1704 /// LOC100996395 / Fold change vs veh, KIAA1704 /// LOC100996395 / RFU, ING1 / Fold change vs veh, ING1 / RFU, TRMT61B / Fold change vs veh, TRMT61B / RFU, FUBP3 / Fold change vs veh, FUBP3 / RFU, TP53 / Fold change vs veh, TP53 / RFU, TNKS2 / Fold change vs veh, TNKS2 / RFU, ZFP14 / Fold change vs veh, ZFP14 / RFU, ACTR2 / Fold change vs veh, ACTR2 / RFU, PPP3R1 / Fold change vs veh, PPP3R1 / RFU, PIK3R1 / Fold change vs veh, PIK3R1 / RFU, HNRNPA1 / Fold change vs veh, HNRNPA1 / RFU, RNF170 / Fold change vs veh, RNF170 / RFU, ZNF28 / Fold change vs veh, ZNF28 / RFU, RNGTT / Fold change vs veh, RNGTT / RFU, OGT / Fold change vs veh, OGT / RFU, BRD1 / Fold change vs veh, BRD1 / RFU, MARS / Fold change vs veh, MARS / RFU, ZNF655 / Fold change vs veh, ZNF655 / RFU, FAHD1 / Fold change vs veh, FAHD1 / RFU, BDP1 / Fold change vs veh, BDP1 / RFU, LRRCC1 / Fold change vs veh, LRRCC1 / RFU, ARID1A / Fold change vs veh, ARID1A / RFU, ZNF146 / Fold change vs veh, ZNF146 / RFU, ZNF330 / Fold change vs veh, ZNF330 / RFU, GPN3 / Fold change vs veh, GPN3 / RFU, C9orf123 / Fold change vs veh, C9orf123 / RFU, N4BP2L2 / Fold change vs veh, N4BP2L2 / RFU, ARFIP1 / Fold change vs veh, ARFIP1 / RFU, FAM179B / Fold change vs veh, FAM179B / RFU, BCL10 / Fold change vs veh, BCL10 / RFU, UHRF1BP1L / Fold change vs veh, UHRF1BP1L / RFU, BET1 / Fold change vs veh, BET1 / RFU, CNOT2 / Fold change vs veh, CNOT2 / RFU, ZNF268 / Fold change vs veh, ZNF268 / Fold change vs veh, ZNF507 / RFU, DGCR2 / Fold change vs veh, DGCR2 / RFU, WDSUB1 / Fold change vs veh, WDSUB1 / Fold change vs veh, HSP90B1 /// MIR3652 / RFU, ADSS / Fold change vs veh, ADSS / RFU, GK / Fold change vs veh, GK / RFU, ZNF148 / Fold change vs veh, ZNF148 / RFU, TAF9 / Fold change vs veh, TAF9 / RFU, SLC1A5 / Fold change vs veh, SLC1A5 / RFU, SLMO2 / Fold change vs veh, SLMO2 / RFU, ABCC4 / Fold change vs veh, ABCC4 / RFU, LOC101060439 /// RAP1B / Fold change vs veh, LOC101060439 /// RAP1B / RFU, RFX7 / Fold change vs veh, RFX7 / RFU, GTPBP10 / Fold change vs veh, GTPBP10 / RFU, CNEP1R1 / Fold change vs veh, CNEP1R1 / RFU, BIVM-ERCC5 /// ERCC5 / Fold change vs veh, BIVM-ERCC5 /// ERCC5 / RFU, ILF3 / Fold change vs veh, ILF3 / RFU 11762660_at / Fold change /veh 11762660_at / RFU VCAN (11757783_s_at) / Fold change /veh VCAN (11757783_s_at) / RFU DDX43 (11728927_at) / Fold change /veh DDX43 (11728927_at) / RFU KRT8 (11758188_x_at) / Fold change /veh KRT8 (11758188_x_at) / RFU NKD1 (11759106_at) / Fold change /veh NKD1 (11759106_at) / RFU SRD5A1 (11742802_a_at) / Fold change /veh SRD5A1 (11742802_a_at) / RFU TPSAB1 /// TPSB2 (11721975_s_at) / Fold change /veh TPSAB1 /// TPSB2 (11721975_s_at) / RFU GSTM3 (11746129_a_at) / Fold change /veh GSTM3 (11746129_a_at) / RFU IL23R (11737362_x_at) / Fold change /veh IL23R (11737362_x_at) / RFU TMEM51 (11727254_a_at) / Fold change /veh TMEM51 (11727254_a_at) / RFU PIWIL2 (11732686_x_at) / Fold change /veh PIWIL2 (11732686_x_at) / RFU ORM1 (11744905_x_at) / Fold change /veh ORM1 (11744905_x_at) / RFU CCDC152 (11743942_at) / Fold change /veh CCDC152 (11743942_at) / RFU ECM1 (11717891_a_at) / Fold change /veh ECM1 (11717891_a_at) / RFU IL23R (11748794_a_at) / Fold change /veh IL23R (11748794_a_at) / RFU TNFAIP8L3 (11732012_x_at) / Fold change /veh TNFAIP8L3 (11732012_x_at) / RFU MBOAT4 (11741988_at) / Fold change /veh MBOAT4 (11741988_at) / RFU 11764193_at / Fold change /veh 11764193_at / RFU TMEM53 (11763286_at) / Fold change /veh TMEM53 (11763286_at) / RFU MAGEB2 (11727129_at) / Fold change /veh MAGEB2 (11727129_at) / RFU TMEM200A (11744735_a_at) / Fold change /veh TMEM200A (11744735_a_at) / RFU CCDC152 (11751479_a_at) / Fold change /veh CCDC152 (11751479_a_at) / RFU FAM211A (11726209_a_at) / Fold change /veh FAM211A (11726209_a_at) / RFU RGS16 (11746705_a_at) / Fold change /veh RGS16 (11746705_a_at) / RFU VCAN (11755009_s_at) / Fold change /veh VCAN (11755009_s_at) / RFU RHOB (11743442_s_at) / Fold change /veh RHOB (11743442_s_at) / RFU RGS16 (11720943_a_at) / Fold change /veh RGS16 (11720943_a_at) / RFU RGS16 (11720944_at) / Fold change /veh RGS16 (11720944_at) / RFU, VPS4B / Fold change vs veh, VPS4B / RFU, CREB1 / Fold change vs veh, CREB1 / RFU, DNAJC13 / Fold change vs veh, DNAJC13 / RFU, GNAQ / Fold change vs veh, GNAQ / RFU, CDK5R1 / Fold change vs veh, CDK5R1 / RFU, ZRANB3 / Fold change vs veh, ZRANB3 / RFU, CUL4A / Fold change vs veh, CUL4A / RFU, CCNY / Fold change vs veh, CCNY / RFU, UFL1 / Fold change vs veh, UFL1 / RFU, COG3 / Fold change vs veh, COG3 / RFU, DIAPH2 / Fold change vs veh, DIAPH2 / RFU, SKA2 / Fold change vs veh, SKA2 / RFU, AFF3 / Fold change vs veh, AFF3 / RFU, LMF1 / Fold change vs veh, LMF1 / RFU, IPO11 / Fold change vs veh, IPO11 / RFU, DFFB / Fold change vs veh, DFFB / RFU, FOXP1 / Fold change vs veh, FOXP1 / RFU, CARD8 / Fold change vs veh, CARD8 / RFU, STRN3 / Fold change vs veh, STRN3 / RFU, ADK / Fold change vs veh, ADK / RFU, RASSF2 / Fold change vs veh, RASSF2 / RFU, WIPF1 / Fold change vs veh, WIPF1 / RFU, LARP1B / Fold change vs veh, LARP1B / RFU, RASA1 / Fold change vs veh, RASA1 / RFU, RB1 / Fold change vs veh, RB1 / RFU, PPFIA1 / Fold change vs veh, PPFIA1 / RFU, MAT2A / Fold change vs veh, MAT2A / RFU, CCT5 / Fold change vs veh, CCT5 / RFU, WDR92 / Fold change vs veh, WDR92 / RFU, CUX1 / Fold change vs veh, CUX1 / RFU, TTC7A / Fold change vs veh, TTC7A / RFU, TMEM135 / Fold change vs veh, TMEM135 / RFU, DEPTOR / Fold change vs veh, DEPTOR / RFU, CPM / Fold change vs veh, CPM / RFU, DNAJB6 / Fold change vs veh, DNAJB6 / RFU, CACNA2D3 / Fold change vs veh, CACNA2D3 / RFU, DTX4 / Fold change vs veh, DTX4 / RFU, TFCP2 / Fold change vs veh, TFCP2 / RFU, GMCL1 /// GMCL1P1 / Fold change vs veh, GMCL1 /// GMCL1P1 / RFU, AEBP2 / Fold change vs veh, AEBP2 / RFU, SNHG1 /// SNORD22 /// SNORD25 /// SNORD26 /// SNORD27 /// SNORD28 /// SNORD29 /// SNORD31 / Fold change vs veh, SNHG1 /// SNORD22 /// SNORD25 /// SNORD26 /// SNORD27 /// SNORD28 /// SNORD29 /// SNORD31 / Fold change (Aza/veh), C12orf56 (ProbeSet 11735607_a_at) / Fold change (ACY-1035/veh), C12orf56 (ProbeSet 11735607_a_at) / Fold change (Aza/veh), FGFR1OP (ProbeSet 11751329_s_at) / Fold change (ACY-1035/veh), FGFR1OP (ProbeSet 11751329_s_at) / Fold change (Aza/veh), VPS36 (ProbeSet 11739960_a_at) / Fold change (ACY-1035/veh), VPS36 (ProbeSet 11739960_a_at) / RFU SYPL1 (11715823_x_at) / Fold change /veh SYPL1 (11715823_x_at) / RFU IGFBP7 (11715501_s_at) / Fold change /veh IGFBP7 (11715501_s_at) / RFU REEP3 (11722064_at) / Fold change /veh REEP3 (11722064_at) / RFU IGLL1 (11728026_x_at) / Fold change /veh IGLL1 (11728026_x_at): dose or concentration left out as unconfirmed
Conditions: ProbeSet 11721559_s_at; LIST B

## Nc1ccc(-c2cccs2)cc1NC(=O)c1ccc2c(c1)cc(C1CC1)n2CCN1CCOCC1 [ACY-1035]
  RFU, ZNF638 /// ZNF638-IT1: 322.16 RFU
